Consider four compounds from patent US4154852A, “Novel aminobenzocycloheptenes” (Roussel Uclaf, priority 1976, dated 1979).

One data set has as its system serotonine (5HT) uptake. Description: Inhibition of serotonine uptake in vitro (14C-5HT, impure brain synaptosomes). Format: biochemical, female rat. To be noted: rat brain synaptosomes, 37° C., 5 minutes, 14 C-5HT 10^-7 M; read-out: Test in vitro I.C. 50 (inhibition of 14C-5HT uptake). The protocol: (§1) The inhibition of serotonine (5HT) uptake was measured in impure synaptosomes prepared from the entire brain of a female rat 19 to 21 days old using the technique of Kannengiesser et al. [Biochemical Pharmacology,Vol. 22, (1973) p. 73]. Diverse concentrations of the products were placed in an incubator with the preparation at 37° C. for 5 minutes in the presence of 14 C-5HT at a concentration of 10^-7 M. The 50% inhibiting concentration (IC50), dose which inhibits by 50% the uptake of 14C-5HT in the synaptosomes was determined graphically and the IC50 dose for the compounds is reported in Table V.

Data set [1] has as its system effects of nialamide (monoamine oxidase inhibitor). In words: Potentialization of effects of monoamine oxidase inhibitor (nialamide) in mice, actimetric measurement. Format: in vivo. Particulars: nialamide 100 mg/kg i.p. 30 minutes before, 6 hours. The protocol:
The administration of a monoamine oxidase inhibitor to mice induces a hyperactive movement of the animals which is able to be potentialized by an antidepressant. Using the procedure of Carlsson et al [Brain Research, Vol. 12 (1969), p. 456], a dose of 100 mg/kg of nialamide was intraperitoneally administered to mice 30 minutes before the intraperitoneal administration of the tested product and the values of actimetric measurements were recorded every 30 minutes for 6 hours. Potentialization of the effects of nialamide for the tested product was expressed in increasing number of + signs for a determined dose in mg/kg.

Data set [2] relates to 5-hydroxytryptophane (5 HTP) effects. Description: Potentialization of 5 HTP effects (trembling) in mice. Format: in vivo. Particulars: Mus musculus, i.p. one hour before 200 mg/kg 5-HTP i.p., observed every 15 minutes for one hour, read-out: MAD (minimum active dose), potentialization of 5 HTP effects. The protocol: The administration of 5-hydroxytryptophane (5 HTP) to mice pretreated with an antidepressant induces in the mice a particular behaviour namely the appearance of trembling.
The test product was intraperitoneally administered in increasing doses one hour before the intraperitoneal administration of 200 mg/kg of 5-HTP and the symptoms were observed were noted every 15 minutes for one hour to determine the minimum active dose (MAD) of the test product.

The test system of a further data set is effects of L-dopa. Description: Potentialization of effects of L-dopa in iproniazide-pretreated mice. Format: in vivo. To be noted: Mus musculus, ip; i.p. one hour before L-dopa 100 mg/kg i.p.; iproniazide 75 mg/kg i.p. 18 hours before; male mice; read-out: ED50 (dose which potentializes by 50% the L-dopa effects). The protocol: The administration of L-dopa to mice pretreated 18 hours previously with iproniazide produced certain number of symptoms; muscular hypertonicity, hyperactivity, agitation, crying, aggressiveness, salivation and exophthalmy. The intensity of these effects is potentialized by administration of an antidepressant one hour before the administration of L-dopa. Male mice received intraperitoneally 75 mg/kg of iproniazide 18 hours before the start of the test and the tested product was intraperitoneally administered in aqueous solution in increasing doses. One hour later, L-dopa was intraperitoneally administered at a dose of 100 mg/kg and the different symptoms were observed 15 and 30 minutes later. They were evaluated on a scale of 0 to 3 for each animal and the totals for each dose were determined.

The next data set concerns uptake of 14C-5HT. Description: Inhibition of serotonine uptake in vivo (synaptosomes prepared after administration to rats). More on the design: key: the activity was expressed in increasing number of + signs; ++: the activity was expressed in increasing number of + signs; +++: the activity was expressed in increasing number of + signs. Particulars: 5 to 20 mg/kg i.p., female rats 19 to 21 days old, brain removed after 30 minutes. The protocol:
as §1
The tested products were intraperitoneally administered to groups of female rats 19 to 21 days old at doses of 5 to 20 mg/kg. After 30 minutes, the brain was removed and synaptosomes were prepared and placed in an incubator in the presence of 14 C-5HT as indicated in the previous test.

The nature of another data set: Acute toxicity in mice. To be noted: mouse, in vivo, ip, intraperitoneal, determined 48 hours later, read-out: DL50 (dose which kills 50% of mice). How it is done:
The DL50 dose which kills 50% of mice after intraperitoneal administration of the tested compound was determined 48 hours later and the DL50 for the compounds is reported in Table IV.

`CNC1C=Cc2cc([N+](=O)[O-])ccc2CC1.Cl` (stereo not shown) [Example 1, 2-nitro-7-methylamino-6,7-dihydro [5H] benzocycloheptene hydrochloride]: in the data set on serotonine (5HT) uptake, the IC50 is 320 nM. The results for the “Potentialization of Nialamide” value in data set [1] (tested product 5 mg/kg i.p.) and in data set [1] (tested product 20 mg/kg i.p.) were “+” and “++”, respectively. Also, the minimal effective dose in data set [2] turned out to be 10 mg/kg. Further, in the data set with effects of L-dopa, the ED50 came out at 1 mg/kg. In addition, in the data set on uptake of 14C-5HT, the “In vivo Test (relative power to inhibit the uptake of 14C-5HT)” value is reported as “+++”. In addition, in the data set “Acute toxicity in mice”, the LD50 at 48 h stood at 75 mg/kg.
As to `CNC1C=Cc2cc(N)ccc2CC1.O=C(O)/C=C/C(=O)O` (stereo not shown) [Example 2, 2-amino-7-methylamino-6,7-dihydro [5H] benzocycloheptene fumarate], in the data set with serotonine (5HT) uptake, the IC50 came to 4000 nM. Besides, the “Potentialization of Nialamide” value in data set [1] (tested product 5 mg/kg i.p.) is “+”; in data set [1] (tested product 20 mg/kg i.p.) it was “++”. In addition, the minimal effective dose in data set [2] was determined as 5 mg/kg. In the data set on effects of L-dopa, the ED50 was 10 mg/kg. The “In vivo Test (relative power to inhibit the uptake of 14C-5HT)” value in the data set on uptake of 14C-5HT was “+”. Also, the LD50 at 48 h in “Acute toxicity in mice” turned out to be 75 mg/kg.
On to `CNC1C=Cc2cc(OC)ccc2CC1.Cl` (stereo not shown) [Example 3, 2-methoxy-7-methylamino-6,7-dihydro [5H] benzocycloheptene hydrochloride], for which the IC50 in the data set on serotonine (5HT) uptake amounted to 270 nM. Moreover, the “Potentialization of Nialamide” value in data set [1] (tested product 1 mg/kg i.p.) is reported as “+”; in data set [1] (tested product 5 mg/kg i.p.), “++”. In addition, the 50% effective dose (ED50) in the data set with effects of L-dopa is 5 mg/kg. Further, the “In vivo Test (relative power to inhibit the uptake of 14C-5HT)” value with uptake of 14C-5HT was “++”. Further, the LD50 at 48 h in the data set “Acute toxicity in mice” amounted to 50 mg/kg.
Take `CNC1C=Cc2cc(O)ccc2CC1.Cl` (stereo not shown) [Example 4, 7-methylamino-6,7-dihydro [5H] benzocycloheptene-2-ol hydrochloride]: the IC50 in the data set with serotonine (5HT) uptake came out at 380 nM. The LD50 at 48 h in the data set “Acute toxicity in mice” came to 50 mg/kg.

One may read the ED50 as the dose at which the effect has come halfway, by size or by number of responders.
